Assay results taken from PubChem BioAssay AID1963858 (Molecular Pharmacology Branch, DTP, NCI, 2024).

System: HOP-62 multicell spheroids with HUVEC/MSC, viability
Assay: Anticancer human tumor HOP-62 cell line growth inhibition [KRAS2];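 further: viability read after a week of compound exposure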;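 on viability, T/C: 100% = DMSO vehicle-treated spheroids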
Details: for IC50: curve of first compound; for viability, T/C: stronger effect = lower value
In short: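 KRAS-mutant tumor cells were grown as spheroids with HUVEC endothelial cells and human MSCs as stroma. Targeted agents were tested alone and with KRAS pathway inhibitors. Doses started at or near clinical Cmax, or 10 microM, descending half-log.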

[1] = second compound 0.1 µM, first compound 0.0316 µM
[2] = second compound 0.1 µM, first compound 0.1 µM
[3] = second compound 0.1 µM, first compound 0.316 µM
[4] = second compound 0.1 µM, first compound 1 µM
[5] = second compound 0.1 µM, first compound 3.16 µM
[6] = second compound 0.1 µM, first compound 10 µM
[7] = second compound 0.316 µM, first compound 0.0316 µM
[8] = second compound 0.316 µM, first compound 0.1 µM
[9] = second compound 0.316 µM, first compound 0.316 µM
[10] = second compound 0.316 µM, first compound 1 µM
[11] = second compound 0.316 µM, first compound 3.16 µM
[12] = second compound 0.316 µM, first compound 10 µM
[13] = second compound 1 µM, first compound 0.0316 µM
[14] = second compound 1 µM, first compound 0.1 µM
[15] = second compound 1 µM, first compound 0.316 µM
[16] = second compound 1 µM, first compound 1 µM
[17] = second compound 1 µM, first compound 3.16 µM
[18] = second compound 1 µM, first compound 10 µM
[19] = second compound 3.16 µM, first compound 0.0316 µM
[20] = second compound 3.16 µM, first compound 0.1 µM
[21] = second compound 3.16 µM, first compound 0.316 µM
[22] = second compound 3.16 µM, first compound 1 µM
[23] = second compound 3.16 µM, first compound 3.16 µM
[24] = second compound 3.16 µM, first compound 10 µM
[25] = second compound 10 µM, first compound 0.0316 µM
[26] = second compound 10 µM, first compound 0.1 µM
[27] = second compound 10 µM, first compound 0.316 µM
[28] = second compound 10 µM, first compound 1 µM
[29] = second compound 10 µM, first compound 3.16 µM
[30] = second compound 10 µM, first compound 10 µM
[31] = second compound 0.1 µM, first compound 0.01 µM
[32] = second compound 0.316 µM, first compound 0.01 µM
[33] = second compound 1 µM, first compound 0.01 µM
[34] = second compound 3.16 µM, first compound 0.01 µM
[35] = second compound 10 µM, first compound 0.01 µM

Row | SMILES | IC50 (second compound 0.1 µM) | IC50 (second compound 0.316 µM) | IC50 (second compound 1 µM) | IC50 (second compound 3.16 µM) | IC50 (second compound 10 µM) | viability, T/C [1] | viability, T/C [2] | viability, T/C [3] | viability, T/C [4] | viability, T/C [7] | viability, T/C [8] | viability, T/C [9] | viability, T/C [10] | viability, T/C [13] | viability, T/C [14] | viability, T/C [15] | viability, T/C [16] | viability, T/C [19] | viability, T/C [20] | viability, T/C [21] | other results
1 | CC(C)NCC(C(=O)N1CCN(c2ncnc3c2C(C)CC3O)CC1)c1ccc(Cl)cc1 (stereo not given) + CNCc1ccccc1-c1csc(C(C)Nc2nc(C)nc3cc(OC)c(OC)cc23)c1 | 844 nM | 608 nM | 212 nM | < 31.6 nM | < 31.6 nM | 119% | 83% | 83.4% | 45.9% | 89.5% | 78.5% | 73.7% | 32.4% | 81.3% | 74.8% | 35.6% | 23.4% | 0.41% | 0.71% | 0.27% | viability, T/C [5]: 17.2%; viability, T/C [6]: 10.3%; viability, T/C [11]: 13.4%; viability, T/C [12]: 10.2%; viability, T/C [17]: 16.9%; viability, T/C [18]: 9.94%; viability, T/C [22]: 0.47%; viability, T/C [23]: 0.17%; viability, T/C [24]: 0.26%; viability, T/C [25]: 0.24%; viability, T/C [26]: 0.26%; viability, T/C [27]: 0.26%; viability, T/C [28]: 0.25%; viability, T/C [29]: 0.23%; viability, T/C [30]: 0.33%
2 | CC1COCCN1c1cc(-c2ccnn2C)c2ccnc(-c3ccn[nH]3)c2n1 (stereo not given) + CNCc1ccccc1-c1csc(C(C)Nc2nc(C)nc3cc(OC)c(OC)cc23)c1 | 54.9 nM | 61.1 nM | 36.9 nM | < 10 nM | < 10 nM | 73.1% | 25.3% | 13.5% | 14% | 78.8% | 28.7% | 14.2% | 15.2% | 53.9% | 25.2% | 17.4% | 14.7% | 0.24% | 2.16% | 0.06% | viability, T/C [31]: 106%; viability, T/C [5]: 16.4%; viability, T/C [32]: 106%; viability, T/C [11]: 14.3%; viability, T/C [33]: 94.9%; viability, T/C [17]: 12.8%; viability, T/C [34]: 3.68%; viability, T/C [22]: 0.06%; viability, T/C [23]: 0.27%; viability, T/C [35]: 0.1%; viability, T/C [25]: 0.64%; viability, T/C [26]: 0.08%; viability, T/C [27]: 0.09%; viability, T/C [28]: 0.58%; viability, T/C [29]: 0.16%
3 | CC1OCC2(CCN(c3cnc(Sc4ccnc(N)c4Cl)c(N)n3)CC2)C1N (stereo not given) + CNCc1ccccc1-c1csc(C(C)Nc2nc(C)nc3cc(OC)c(OC)cc23)c1 | > 10000 nM | > 10000 nM | 638 nM | < 31.6 nM | < 31.6 nM | 89.8% | 80.4% | 74.1% | 67.5% | 85.5% | 88% | 69.2% | 53.6% | 82.3% | 76.2% | 58.8% | 45.4% | 34.3% | 7.49% | 0.61% | viability, T/C [5]: 65.3%; viability, T/C [6]: 58.8%; viability, T/C [11]: 52.3%; viability, T/C [12]: 49.7%; viability, T/C [17]: 33.5%; viability, T/C [18]: 34.1%; viability, T/C [22]: 0.1%; viability, T/C [23]: 0.15%; viability, T/C [24]: 0.15%; viability, T/C [25]: 0.13%; viability, T/C [26]: 0.17%; viability, T/C [27]: 0.09%; viability, T/C [28]: 0.09%; viability, T/C [29]: 0.6%; viability, T/C [30]: 0.16%
4 | CCN1CCN(Cc2ccc(Nc3ncc(F)c(-c4cc(F)c5nc(C)n(C(C)C)c5c4)n3)nc2)CC1 + CNCc1ccccc1-c1csc(C(C)Nc2nc(C)nc3cc(OC)c(OC)cc23)c1 | > 1000 nM | > 1000 nM | 257 nM | < 3.16 nM | < 3.16 nM | 95.3% | 90.4% | 72.6% | 54.4% | 81.3% | 71% | 71.7% | 48.4% | 72.9% | 52.6% | 51.4% | 41.4% | 0.14% | 0.21% | 0.17% | viability, T/C (second compound 0.1 µM, first compound 0.00316 µM): 102%; viability, T/C [31]: 112%; viability, T/C (second compound 0.316 µM, first compound 0.00316 µM): 108%; viability, T/C [32]: 90.4%; viability, T/C (second compound 1 µM, first compound 0.00316 µM): 97%; viability, T/C [33]: 73.6%; viability, T/C (second compound 3.16 µM, first compound 0.00316 µM): 0.39%; viability, T/C [34]: 0.5%; viability, T/C [22]: 0.16%; viability, T/C (second compound 10 µM, first compound 0.00316 µM): 0.1%; viability, T/C [35]: 0.1%; viability, T/C [25]: 0.1%; viability, T/C [26]: 0.11%; viability, T/C [27]: 0.1%; viability, T/C [28]: 0.16%
5 | CCNC(=O)CC1N=C(c2ccc(Cl)cc2)c2cc(OC)ccc2-n2c(C)nnc21 (stereo not given) + CNCc1ccccc1-c1csc(C(C)Nc2nc(C)nc3cc(OC)c(OC)cc23)c1 | 438 nM | 245 nM | 136 nM | < 31.6 nM | < 31.6 nM | 103% | 74.4% | 52.3% | 43.1% | 92.3% | 72% | 44.7% | 30.9% | 86% | 54.3% | 38.2% | 29.7% | 0.15% | 0.21% | 0.07% | viability, T/C [5]: 37.3%; viability, T/C [6]: 35.1%; viability, T/C [11]: 33.6%; viability, T/C [12]: 32.6%; viability, T/C [17]: 28.1%; viability, T/C [18]: 28.6%; viability, T/C [22]: 0.06%; viability, T/C [23]: 0.06%; viability, T/C [24]: 0.13%; viability, T/C [25]: 0.1%; viability, T/C [26]: 0.09%; viability, T/C [27]: 0.1%; viability, T/C [28]: 0.09%; viability, T/C [29]: 0.23%; viability, T/C [30]: 0.17%
6 | Cn1nccc1Nc1nccc(-c2cc3c(s2)C(C)(C)N(CCN2CCOCC2)C3=O)n1 + CNCc1ccccc1-c1csc(C(C)Nc2nc(C)nc3cc(OC)c(OC)cc23)c1 | 1220 nM | 859 nM | 646 nM | < 31.6 nM | < 31.6 nM | 110% | 102% | 92.8% | 52.5% | 104% | 98.3% | 77.1% | 47.5% | 101% | 99% | 68.3% | 39.6% | 1.01% | 2.12% | 0.23% | viability, T/C [5]: 34.6%; viability, T/C [6]: 28.3%; viability, T/C [11]: 25.3%; viability, T/C [12]: 26.9%; viability, T/C [17]: 27.6%; viability, T/C [18]: 27.1%; viability, T/C [22]: 0.16%; viability, T/C [23]: 0.1%; viability, T/C [24]: 0.18%; viability, T/C [25]: 0.19%; viability, T/C [26]: 0.19%; viability, T/C [27]: 0.2%; viability, T/C [28]: 0.2%; viability, T/C [29]: 0.22%; viability, T/C [30]: 0.23%
7 | CC(=O)OC12COC1CC(O)C1(C)C(=O)C(O)C3=C(C)C(OC(=O)C(O)C(NC(=O)OC(C)(C)C)c4ccccc4)CC(O)(C(OC(=O)c4ccccc4)C21)C3(C)C (stereo not given) + COc1cc2nc(C)nc(NC(C)c3cc(N)cc(C(F)(F)F)c3)c2cc1OC1CCOC1 | < 10 nM | < 10 nM | < 10 nM | < 10 nM | < 10 nM | 32.3% | 36.2% | 32.7% | 37.5% | 35.6% | 34.4% | 27.5% | 40.9% | 35.1% | 34.2% | 39.5% | 39.6% | 27.3% | 27.2% | 37% | viability, T/C [31]: 40%; viability, T/C [5]: 53.4%; viability, T/C [32]: 38.5%; viability, T/C [11]: 41%; viability, T/C [33]: 29.7%; viability, T/C [17]: 38.7%; viability, T/C [34]: 29.7%; viability, T/C [22]: 35.9%; viability, T/C [23]: 39.5%; viability, T/C [35]: 34.2%; viability, T/C [25]: 31.1%; viability, T/C [26]: 51.7%; viability, T/C [27]: 30.7%; viability, T/C [28]: 33.7%; viability, T/C [29]: 40.6%
